Our source for the DC50 and Emax values is patent US20260014147A1, “STAT6 DEGRADERS” (Gilead Sciences, Inc., priority 2024, published 2026).

Structures are written as SMILES.

One assay addresses T1, STAT6 (endogenous, HiBiT-tagged) in HeLa LgBiT clone 4.14 cells (Homo sapiens, UniProt P42226).
T1 construct: These cells express endogenous STAT6; host or cells: HeLa LgBiT clone 4.14
T1 sequence (P42226 1-847): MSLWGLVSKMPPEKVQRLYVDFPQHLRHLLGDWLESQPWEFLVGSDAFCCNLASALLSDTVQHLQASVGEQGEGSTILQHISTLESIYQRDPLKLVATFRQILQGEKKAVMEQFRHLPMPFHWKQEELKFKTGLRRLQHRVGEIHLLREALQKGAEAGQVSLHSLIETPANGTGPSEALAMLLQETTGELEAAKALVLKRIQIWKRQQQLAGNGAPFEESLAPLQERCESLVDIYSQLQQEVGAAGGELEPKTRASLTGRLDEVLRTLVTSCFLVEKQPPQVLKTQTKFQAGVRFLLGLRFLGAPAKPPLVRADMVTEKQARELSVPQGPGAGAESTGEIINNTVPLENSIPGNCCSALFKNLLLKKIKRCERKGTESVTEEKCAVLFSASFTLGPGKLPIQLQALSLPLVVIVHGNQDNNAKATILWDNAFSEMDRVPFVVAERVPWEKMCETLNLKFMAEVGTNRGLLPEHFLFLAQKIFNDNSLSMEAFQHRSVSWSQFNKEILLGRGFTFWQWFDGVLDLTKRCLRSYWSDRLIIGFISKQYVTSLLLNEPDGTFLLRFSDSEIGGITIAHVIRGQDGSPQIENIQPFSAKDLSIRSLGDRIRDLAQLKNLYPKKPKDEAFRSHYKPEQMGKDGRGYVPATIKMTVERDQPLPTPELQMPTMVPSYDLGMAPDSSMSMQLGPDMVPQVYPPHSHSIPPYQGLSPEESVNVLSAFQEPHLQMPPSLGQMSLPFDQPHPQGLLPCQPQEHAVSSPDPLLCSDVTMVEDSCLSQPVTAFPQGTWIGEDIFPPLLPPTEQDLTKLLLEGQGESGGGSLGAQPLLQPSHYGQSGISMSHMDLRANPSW
The assay is described as follows: STAT6 Degrader Assay (HiBiT based, HeLa LgBiT clone 4.14 cells, luminescence, DC50). The settings on record: DC50 provided for test compounds with >80% Emax, geometric mean, read-out: STAT6 degradation DC50. The class given is cell-based. In outline: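 Remaining STAT6 is read as NanoBiT luminescence after 0.5 h with Nano-Glo, in HeLa LgBiT clone 4.14 cells expressing endogenous HiBiT-tagged STAT6, following 4-24 h compound incubation at 37 °C. Full degradation is set by 50 µM terfenadine, which kills the cells; degradation plotted against log compound concentration.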
For orientation: HiBiT is a short tag that completes a luciferase, so light tracks the accessible tagged protein.
Take `COCc1nc2cc(-c3ccnc4c3cc([C@H](C)N3CCC(c5ccc(C(=O)N6CCC(CN7CCN(c8ccc(NC9CCC(=O)NC9=O)cc8Cl)CC7)CC6)cc5)CC3)n4C)ccc2[nH]1` (stereo partly drawn) [Example 2i4, 3-((3-chloro-4-(4-((1-(4-(1-((S)-1-(4-(2-(methoxymethyl)-1H-benzo[d]imidazol-5-yl)-1-methyl-1H-pyrrolo[2,3-b]pyridin-2-yl)ethyl)piperidin-4-yl)benzoyl)piperidin-4-yl)methyl)piperazin-1-yl)phenyl)amino)piperidine-2,6-dione]: the DC50 was determined as 0.0076 µM. Regarding `COCc1nc2cc(-c3ccnc4c3cc([C@H](C)N3CCC(c5ccc(C(=O)N6CCC(CN7CCN(c8ccc(NC9CCC(=O)NC9=O)cc8C(F)(F)F)CC7)CC6)cc5)CC3)n4C)ccc2[nH]1` (stereo partly drawn) [Example 2i5, 3-((4-(4-((1-(4-(1-((S)-1-(4-(2-(methoxymethyl)-1H-benzo[d]imidazol-5-yl)-1-methyl-1H-pyrrolo[2,3-b]pyridin-2-yl)ethyl)piperidin-4-yl)benzoyl)piperidin-4-yl)methyl)piperazin-1-yl)-3-(trifluoromethyl)phenyl)amino)piperidine-2,6-dione], the DC50 came to 0.034 µM.

On to `Cn1c(CN2CCC(c3ccc(C(=O)N4CCC(CN5CCN(c6ncc(NC7CCC(=O)NC7=O)cn6)CC5)CC4)cc3)CC2)cc2c(-c3ccc4[nH]ncc4c3)ccnc21` (stereo not shown) [Example 2k1, 3-((2-(4-((1-(4-(1-((4-(1H-indazol-5-yl)-1-methyl-1H-pyrrolo[2,3-b]pyridin-2-yl)methyl)-piperidin-4-yl)benzoyl)piperidin-4-yl)methyl)piperazin-1-yl)pyrimidin-5-yl)amino)piperidine-2,6-dione], for which the DC50 was determined as 0.0288 µM. Take `COCc1nc2cc(-c3ccnc4c3cc([C@H](C)N3CCC(c5ccc(C(=O)N6CCC(CN7CCC(c8ccc(NC9CCC(=O)NC9=O)cc8F)C(F)(F)C7)CC6)cc5)CC3)n4C)ccc2[nH]1` (stereo partly drawn) [Example 2m3, 3-((4-(3,3-difluoro-1-((1-(4-(1-((S)-1-(4-(2-(methoxymethyl)-1H-benzo[d]imidazol-5-yl)-1-methyl-1H-pyrrolo[2,3-b]pyridin-2-yl)ethyl)piperidin-4-yl)benzoyl)piperidin-4-yl)methyl)piperidin-4-yl)-3-fluorophenyl)amino)piperidine-2,6-dione]: the DC50 was determined as 0.0235 µM. Still for that read-out and setting: in the case of `Cn1c(CN2CCC(c3ccc(C(=O)N4CCC(CN5CCN(c6ccc(NC7CCC(=O)NC7=O)cn6)CC5)CC4)cc3)CC2)cc2c(-c3ccc4[nH]ncc4c3)ccnc21` (stereo not shown) [Example 2n1, 3-((6-(4-((1-(4-(1-((4-(1H-indazol-5-yl)-1-methyl-1H-pyrrolo[2,3-b]pyridin-2-yl)methyl)piperidin-4-yl)benzoyl)piperidin-4-yl)methyl)piperazin-1-yl)pyridin-3-yl)amino)piperidine-2,6-dione] it was 0.0152 µM; in that of `Cn1c(CN2CCC(c3ccc(C(=O)N4CCC(CN5CCN(c6ccc(NC7CCC(=O)NC7=O)c(F)n6)CC5)CC4)cc3)CC2)cc2c(-c3ccc4[nH]ncc4c3)ccnc21` (stereo not shown) [Example 2n2, 3-((6-(4-((1-(4-(1-((4-(1H-indazol-5-yl)-1-methyl-1H-pyrrolo[2,3-b]pyridin-2-yl)methyl)-piperidin-4-yl)benzoyl)piperidin-4-yl)methyl)piperazin-1-yl)-2-fluoropyridin-3-yl)amino)piperidine-2,6-dione], 0.0286 µM; in that of `COCc1nc2cc(-c3ccnc4c3cc(CN3CCC(c5ccc(C(=O)N6CCC(CN7CCN(c8ccc(NC9CCC(=O)NC9=O)c(F)n8)CC7)CC6)cc5)CC3)n4C)ccc2[nH]1` (stereo not shown) [Example 2n3, 3-((2-fluoro-6-(4-((1-(4-(1-((4-(2-(methoxymethyl)-1H-benzo[d]imidazol-5-yl)-1-methyl-1H-pyrrolo[2,3-b]pyridin-2-yl)methyl)piperidin-4-yl)benzoyl)piperidin-4-yl)methyl)piperazin-1-yl)pyridin-3-yl)amino)piperidine-2,6-dione], 0.0198 µM.

Still in this assay, the particulars now being: Emax provided for test compounds with <80% Emax (and 2c15), geometric mean, read-out: STAT6 degradation Emax.
Turning to `C[C@@H](c1cc2c(-c3ccc(N)nc3)ccnc2n1C)N1CCC(c2ccc(C(=O)N3CCC(CN4CCN(c5ccc(NC6CCC(=O)NC6=O)cc5C#N)CC4)CC3)cc2)CC1` (stereo partly drawn) [Example 2i3, 2-(4-((1-(4-(1-((S)-1-(4-(6-aminopyridin-3-yl)-1-methyl-1H-pyrrolo[2,3-b]pyridin-2-yl)-ethyl)-piperidin-4-yl)benzoyl)piperidin-4-yl)methyl)piperazin-1-yl)-5-((2,6-dioxopiperidin-3-yl)amino)-benzonitrile], the Emax lay within 30 to 40%.

As to `C[C@@H](c1cc2c(-c3ccc(N)nc3)ccnc2n1C)N1CCC(c2ccc(C(=O)N3CCC(CN4CCN(c5ccc(NC6CCC(=O)NC6=O)cc5Cl)CC4)CC3)cc2)CC1` (stereo partly drawn) [Example 2i6, 3-((4-(4-((1-(4-(1-((S)-1-(4-(6-aminopyridin-3-yl)-1-methyl-1H-pyrrolo[2,3-b]pyridin-2-yl)-ethyl)piperidin-4-yl)benzoyl)piperidin-4-yl)methyl)piperazin-1-yl)-3-chlorophenyl)amino)piperidine-2,6-dione], the Emax lay within 70 to 80%. With `C[C@@H](c1cc2c(-c3ccc(N)nc3)ccnc2n1C)N1CCC(c2ccc(C(=O)N3CCC(CN4CCN(c5ccc(NC6CCC(=O)NC6=O)cc5C(F)(F)F)CC4)CC3)cc2)CC1` (stereo partly drawn) [Example 2i7, 3-((4-(4-((1-(4-(1-((S)-1-(4-(6-aminopyridin-3-yl)-1-methyl-1H-pyrrolo[2,3-b]pyridin-2-yl)-ethyl)-piperidin-4-yl)benzoyl)piperidin-4-yl)methyl)piperazin-1-yl)-3-(trifluoromethyl)phenyl)amino)-piperidine-2,6-dione], the Emax lay in the range of 40 to 50%. On to `CN(C(=O)c1ccc(C2CCN(Cc3cc4c(-c5ccc6[nH]ncc6c5)ccnc4n3C)CC2)cc1)c1ccc(C2CCN(c3ccc(NC4CCC(=O)NC4=O)cc3F)CC2)cc1` (stereo not shown) [Example 2j1, 4-(1-((4-(1H-indazol-5-yl)-1-methyl-1H-pyrrolo[2,3-b]pyridin-2-yl)methyl)piperidin-4-yl)-N-(4-(1-(4-((2,6-dioxopiperidin-3-yl)amino)-2-fluorophenyl)piperidin-4-yl)phenyl)-N-methylbenzamide], for which the maximal effect (Emax) is 70 to 80%. As to `CN(C(=O)c1ccc(C2CCN(Cc3cc4c(-c5ccc6[nH]ncc6c5)ccnc4n3C)CC2)cc1)c1ccc(C2CCN(c3ccc(NC4CCC(=O)NC4=O)cc3)CC2)cc1` (stereo not shown) [Example 2j2, 4-(1-((4-(1H-indazol-5-yl)-1-methyl-1H-pyrrolo[2,3-b]pyridin-2-yl)methyl)piperidin-4-yl)-N-(4-(1-(4-((2,6-dioxopiperidin-3-yl)amino)phenyl)piperidin-4-yl)phenyl)-N-methylbenzamide], the maximal response (Emax) was 40 to 50%. On the same count and under the same terms, in the case of `Cn1c(CN2CCC(c3ccc(C(=O)N4CCC(CN5CCN(c6nccc(NC7CCC(=O)NC7=O)n6)CC5)CC4)cc3)CC2)cc2c(-c3ccc4[nH]ncc4c3)ccnc21` (stereo not shown) [Example 2k2, 3-((2-(4-((1-(4-(1-((4-(1H-indazol-5-yl)-1-methyl-1H-pyrrolo[2,3-b]pyridin-2-yl)methyl)-piperidin-4-yl)benzoyl)piperidin-4-yl)methyl)piperazin-1-yl)pyrimidin-4-yl)amino)piperidine-2,6-dione] it was 30 to 40%; in that of `Cn1c(CN2CCC(c3ccc(C(=O)N4CCC(CN5CCN(c6ccnc(NC7CCC(=O)NC7=O)n6)CC5)CC4)cc3)CC2)cc2c(-c3ccc4[nH]ncc4c3)ccnc21` (stereo not shown) [Example 2k3, 3-((4-(4-((1-(4-(1-((4-(1H-indazol-5-yl)-1-methyl-1H-pyrrolo[2,3-b]pyridin-2-yl)methyl)-piperidin-4-yl)benzoyl)piperidin-4-yl)methyl)piperazin-1-yl)pyrimidin-2-yl)amino)piperidine-2,6-dione], 30 to 40%. As to `Cn1c(CN2CCC(c3ccc(C(=O)N4CCC(CN5CCN(c6cccc(NC7CCC(=O)NC7=O)c6)CC5)CC4)cc3)CC2)cc2c(-c3ccc4[nH]ncc4c3)ccnc21` (stereo not shown) [Example 2l1, 3-((3-(4-((1-(4-(1-((4-(1H-indazol-5-yl)-1-methyl-1H-pyrrolo[2,3-b]pyridin-2-yl)methyl)-piperidin-4-yl)benzoyl)piperidin-4-yl)methyl)piperazin-1-yl)phenyl)amino)piperidine-2,6-dione], the Emax was in the range of 60 to 70%. With `Cn1c(CN2CCC(c3ccc(C(=O)N4CCC(CN5CCN(c6ccc(NC7CCC(=O)NC7=O)c(F)n6)CC5)CC4)cc3)CC2)cc2c(-c3ccc(N)nc3)ccnc21` (stereo not shown) [Example 2n4, 3-((6-(4-((1-(4-(1-((4-(6-aminopyridin-3-yl)-1-methyl-1H-pyrrolo[2,3-b]pyridin-2-yl)methyl)-piperidin-4-yl)benzoyl)piperidin-4-yl)methyl)piperazin-1-yl)-2-fluoropyridin-3-yl)amino)piperidine-2,6-dione], the Emax was 70 to 80%.

Usually DC50 stands for the concentration at which degradation of the target reaches its halfway point. As a reminder, the Emax is the size of the effect at its maximum, as opposed to the concentration needed.
